From patent US9456992B2 (XSPRAY MICROPARTICLES AB, priority 2012, dated 2016)
Where a name gives a salt, the structure may show the parent alone. Values belong to the compound of their own block, whether it stands above or below them.

Legend:
[1] = Dissolution measurement assay (apparent solubility, non-sink) in FaSSIF solution (pH 6.5); conditions: for AUC/ 80 min. Mg/min/L: Area Under the Curve during 80 minutes dissolution in FaSSIF solution (pH 6.5)
Description: The medium was prepared in accordance with the manufacturer's instructions. The amount of powder added depends on the wished “total PKI concentration”. […] For other experiments, the drug load was first estimated by HPLC and the amount of powder to obtain the drug concentration was calculated.
Typically, the powder was added in a 8 mL glass bottle and 7 mL of solution was added (typically FaSSIF, FeSSIF or SGF). The glass bottle was put on a shaker (approximately 1 rotation per minute) for dissolution. Samples of 500 μl where taken after different times, and subsequently centrifuged at approximately 15000 g for 3 minutes. The resulting supernatant was then analyzed by HPLC (C18 column Eclipse, 4.6 mm×15 cm, 1 mL/min, detection at […]. Generally samples were taken after 5, 30 and 90 min and eventually 150 min.
(§1) A number of experiments were carried out, wherein nilotinib base or nilotinib HCl represented the protein kinase inhibitor. The experiments were carried out by measuring concentration of solubilized PKI (mg/L) after 5, 30 and 90 minutes dissolution in a solution at about pH 6.5, namely FaSSIF (Fasted State Simulated Intestinal Fluid). Further, experiments were carried out in an alternative solution at about pH 5, namely FeSSIF (Fed State Simulated Intestinal Fluid). Samples of the solution were taken at various time intervals and the amount of protein kinase inhibitor was measured by the dissolution measurement assay described above.
as §1, with “erlotinib” for “nilotinib base or nilotinib”, “PKI.” for “protein kinase inhibitor.”, “of” for “of solubilized”, “PKI” for “protein kinase inhibitor”
as §1, with “pazopanib” for “nilotinib base or nilotinib HCl”, “PKI.” for “protein kinase inhibitor.”, “of” for “of solubilized”, “PKI” for “protein kinase inhibitor”
(§2) A number of experiments were carried out, wherein lapatinib base or lapatinib ditosylate salt represented the PKI. The experiments were carried out by measuring concentration of PKI (mg/L) after 5, 30 and 90 minutes dissolution in a solution at about pH 6.5, namely FaSSIF (Fasted State Simulated Intestinal Fluid). Samples of the solution were taken at various time intervals and the amount of PKI was measured by the dissolution measurement assay described above.
as §2, with “gefitinib” for “lapatinib base or lapatinib ditosylate salt”, “3, 40” for “5, 30”, “80” for “90”
as §2, with “dasatinib” for “lapatinib base or lapatinib ditosylate salt”, “3, 40” for “5, 30”, “80” for “90”

[2] = Dissolution rate measurement in sink conditions, flow through cell system, FaSSIF, 37° C.; format: physicochemical; conditions: sink condition in FaSSIF; for Initial Dissolution Rate: initial slope of accumulated % solubilized vs time, 0 to 10 minutes, 37° C.
Description: Typically, said dissolution rate is measured by a flow through cell system in sink conditions, e.g., according to the US Pharmacopea (USP4). Dissolution measurement in sink conditions of hybrid nanoparticles may be measured in a method consisting of adding the wished amount of powder into a flow through cell system (SOTAX, Allschwill, Switzerland), mounting the cell onto its apparatus and then pumping the appropriate medium (typically FaSSIF, FeSSIF, SGF) through the powder. The temperature of the apparatus is typically set to 37° C. The amount of powder added into the cell depends on drug load of the powder: The exact amount of powder can be calculated from results obtained from drug load analysis of the powders. The PKI may be added into the flow through cell and a flow rate between 5 and 25 ml medium/min is pumped through the powder. […] Samples are typically taken after 0, 0.5, 1, 1.5, 2, 3, 4, 5, 6, 7, 8, 9, 10, 15, 20, 25, 30, 35 and 40 min from the moment the medium comes out from the flow through cell. The accumulated % solubilized of the amount of active substance added into the flow through cell can be calculated and plotted against time (min). The initial slope (“initial dissolution rate”, representing 0-10 minutes) of the graph may be estimated and taken as the dissolution rate of the material in sink condition at 37° C. in the given dissolution medium.
Typically, said dissolution rate is measured by a flow through cell system, for instance in sink conditions. […] The temperature of the apparatus is typically set to 37° C. The amount of powder added into the cell depends on drug load of the powder: The exact amount of powder can be calculated from results obtained from drug load analysis of the powders. The PKI may be added into the flow through cell and a flow rate between 5 and 25 ml medium/min is pumped through the powder. […] Samples are typically taken after 0, 0.5, 1, 1.5, 2, 3, 4, 5, 6, 7, 8, 9, 10, 15, 20, 25, 30, 35 and 40 min from the moment the medium comes out from the flow through cell. The accumulated % solubilized of the amount of active substance added into the flow through cell, can be calculated and plotted against time (min). The initial slope (“initial dissolution rate”, representing 0-10 minutes) of the graph can be estimated and taken as the dissolution rate of the material in sink condition at 37° C. in the given dissolution medium.
Dissolution measurement in sink conditions of compositions of the invention were measured in a method consisting of adding the wished amount of powder into a flow through cell system (SOTAX, Allschwill, Switzerland), mounting the cell onto its apparatus and then pumping the appropriate medium (typically FaSSIF, FeSSIF, SGF) through the powder. The temperature of the apparatus was set to 37° C. The amount of powder added into the cell depends on drug load of the powder: The exact amount of powder was calculated from results obtained from drug load analysis of the powders.
Typically, 3.5 to 7 mg PKI was added into the flow through cell and a flow rate between 8 and 16 ml medium/min (preferably about 8 ml medium/min) was pumped through the powder. One ml samples of the medium passing through the cell were collected at predetermined times. […] Samples were taken after 0, 0.5, 1, 1.5, 2, 3, 4, 5, 6, 7, 8, 9, 10, 15, 20, 25, 30, 35 and 40 min from the moment the medium comes out from the flow through cell. The accumulated % solubilized of the amount of active substance added into the flow through cell was calculated and plotted against time (min). The initial slope (“initial dissolution rate”) of the graph was estimated, as measured during 0 to 10 minutes, and taken as the dissolution rate of the material in sink condition at 37° C. in the given dissolution medium.

[3] = nilotinib HCl, FaSSIF solution (pH 6.5), after 30 minutes dissolution, HCl

SMILES: Cc1cn(-c2cc(NC(=O)c3ccc(C)c(Nc4nccc(-c5cccnc5)n4)c3)cc(C(F)(F)F)c2)cn1 [Exp 3, Nilotinib HCl]
- % solubilized 30 min. [1, 3]: 0.03%

SMILES: Cc1cn(-c2cc(NC(=O)c3ccc(C)c(Nc4nccc(-c5cccnc5)n4)c3)cc(C(F)(F)F)c2)cn1 [Exp 4, Nilotinib Base]
- % solubilized 30 min. ([1]; nilotinib HCl, FaSSIF solution (pH 6.5), after 30 minutes dissolution): 0.50%

SMILES: Cc1ccc(Nc2nccc(N(C)c3ccc4c(C)n(C)nc4c3)n2)cc1S(N)(=O)=O [Exp 84, pazopanib]
- % solubilized 30 min. ([1]; 30 min, pH 6.5): 2.4%
- Conc (mg/L) 90 min ([1]; 90 min, pH 6.5): 15.0 mg/L

SMILES: CS(=O)(=O)CCNCc1ccc(-c2ccc3ncnc(Nc4ccc(OCc5cccc(F)c5)c(Cl)c4)c3c2)o1 [Exp 110, lapatinib base]
- Conc (mg/L) 5 min ([1]; lapatinib, 5 minutes dissolution in FaSSIF solution (pH 6.5)): 2.9 mg/L
- Conc (mg/L) 30 min ([1]; lapatinib, 30 minutes dissolution in FaSSIF solution (pH 6.5)): 6.0 mg/L
- Conc (mg/L) 90 min ([1]; lapatinib, 90 minutes dissolution in FaSSIF solution (pH 6.5)): 6.5 mg/L
- AUC/ 90 min. Mg/min/L ([1]; lapatinib, Area Under the Curve during 90 minutes dissolution in FaSSIF solution (pH 6.5)): 494 Mg/min/L
- % solubilized 30 min. ([1]; lapatinib, after 30 minutes dissolution in FaSSIF solution (pH 6.5)): 0.3%

SMILES: Cc1nc(Nc2ncc(C(=O)Nc3c(C)cccc3Cl)s2)cc(N2CCN(CCO)CC2)n1 [Exp 138, dasatinib]
- AUC/ 80 min. Mg/min/L ([1]; dasatinib): 2396 Mg/min/L
- % solubilized 40 min. ([1]; dasatinib, after 40 minutes dissolution in FaSSIF solution (pH 6.5)): 6.0%

SMILES: Cc1cn(-c2cc(NC(=O)c3ccc(C)c(Nc4nccc(-c5cccnc5)n4)c3)cc(C(F)(F)F)c2)cn1 [Exp 500, nilotinib HCl]
- Initial Dissolution Rate [2]: 0.27

SMILES: COc1cc2ncnc(Nc3ccc(F)c(Cl)c3)c2cc1OCCCN1CCOCC1 [Exp 540, gefitinib]
- Initial Dissolution Rate [2]: 2.2

SMILES: CNC(=O)c1cc(Oc2ccc(NC(=O)Nc3ccc(Cl)c(C(F)(F)F)c3)cc2)ccn1.Cc1ccc(S(=O)(=O)O)cc1 [Experiment 560]
- Accumulated % of solubilized of remaining active substance at a given time (min) ([2]; 0 min): 0.2%
- Accumulated % of solubilized of remaining active substance at a given time (min) ([2]; 0.5 min): 0.4%
- Accumulated % of solubilized of remaining active substance at a given time (min) ([2]; 1 min): 0.7%
- Accumulated % of solubilized of remaining active substance at a given time (min) ([2]; 1.5 min): 1.0%
- Accumulated % of solubilized of remaining active substance at a given time (min) ([2]; 2 min): 1.3%
- Accumulated % of solubilized of remaining active substance at a given time (min) ([2]; 3 min): 1.8%
- Accumulated % of solubilized of remaining active substance at a given time (min) ([2]; 4 min): 2.2%
- Accumulated % of solubilized of remaining active substance at a given time (min) ([2]; 5 min): 2.6%
- Accumulated % of solubilized of remaining active substance at a given time (min) ([2]; 6 min): 3.0%
- Accumulated % of solubilized of remaining active substance at a given time (min) ([2]; 7 min): 3.4%
- Accumulated % of solubilized of remaining active substance at a given time (min) ([2]; 8 min): 3.8%
- Accumulated % of solubilized of remaining active substance at a given time (min) ([2]; 9 min): 4.2%
- Accumulated % of solubilized of remaining active substance at a given time (min) ([2]; 10 min): 4.6%
- Accumulated % of solubilized of remaining active substance at a given time (min) ([2]; 20 min): 8.8%

More lines, now with the values ahead:

- % solubilized 30 min. [1, 3]: 0.20%
- AUC/ 90 min. Mg/min/L ([1]; nilotinib, FaSSIF solution (pH 6.5), Area Under the Curve during 90 minutes dissolution, HCl): 13.0 Mg/min/L
SMILES: Cc1cn(-c2cc(NC(=O)c3ccc(C)c(Nc4nccc(-c5cccnc5)n4)c3)cc(C(F)(F)F)c2)cn1 [Exp 1, Nilotinib HCl]

- % solubilized 30 min. [1, 3]: 0.04%
SMILES: Cc1cn(-c2cc(NC(=O)c3ccc(C)c(Nc4nccc(-c5cccnc5)n4)c3)cc(C(F)(F)F)c2)cn1 [Exp 2, Nilotinib HCl]

- Conc (mg/L) 90 min ([1]; 90 min, pH 6.5): 4.6 mg/L
- % solubilized 30 min. ([1]; erlotinib HCl, FaSSIF solution (pH 6.5), 30 min dissolution): 0.6%
- AUC/ 90 min. ([1]; erlotinib HCl, FaSSIF solution (pH 6.5), AUC during 90 min dissolution): 837 Mg/min/L
SMILES: C#Cc1cccc(Nc2ncnc3cc(OCCOC)c(OCCOC)cc23)c1 [Exp 58, erlotinib HCl]

- AUC/ 80 min. Mg/min/L ([1]; gefitinib): 5967 Mg/min/L
SMILES: COc1cc2ncnc(Nc3ccc(F)c(Cl)c3)c2cc1OCCCN1CCOCC1 [Exp 131, gefitinib]

- Conc (mg/L) 40 min ([1]; 40 min, pH 6.5): 343.51 mg/L
SMILES: CNC(=O)c1cc(Oc2ccc(NC(=O)Nc3ccc(Cl)c(C(F)(F)F)c3)cc2)ccn1 [Exp 142, sorafenib tosylate]

- Conc (mg/L) 3 min ([1]; pH 6.5): 0.6 mg/L
- Conc (mg/L) 40 min ([1]; 40 min, pH 6.5): 0.6 mg/L
- Conc (mg/L) 80 min ([1]; pH 6.5): 0.6 mg/L
- AUC/ 80 min. Mg/min/L ([1]; axitinib): 4.7 Mg/min/L
- % solubilized 40 min. ([1]; axitinib, after 40 minutes dissolution in FaSSIF solution (pH 6.5)): 0.1%
SMILES: CNC(=O)c1ccccc1Sc1ccc2c(/C=C/c3ccccn3)n[nH]c2c1 [Exp 157, axitinib]

- Conc (mg/L) 3 min ([1]; pH 6.5): 0.3 mg/L
- % solubilized 40 min. ([1]; 40 min, pH 6.5): 0.1%
- Conc (mg/L) 40 min ([1]; 40 min, pH 6.5): 0.3 mg/L
- Conc (mg/L) 80 min ([1]; pH 6.5): 0.4 mg/L
SMILES: CCCS(=O)(=O)Nc1ccc(F)c(C(=O)c2c[nH]c3ncc(-c4ccc(Cl)cc4)cc23)c1F [Exp 164, vemurafenib]

- Initial Dissolution Rate [2]: 0.47
SMILES: CNC(=O)c1cc(Oc2ccc(NC(=O)Nc3ccc(Cl)c(C(F)(F)F)c3)cc2)ccn1 [Exp 560, sorafenib tosylate]

- Initial Dissolution Rate [2]: 6.6
SMILES: C[C@@H](Oc1cc(-c2cnn(C3CCNCC3)c2)cnc1N)c1c(Cl)ccc(F)c1Cl [Exp 570, crizotinib]
